Test results reported in ChEMBL document CHEMBL1145592, “Pleuromutilin derivatives having a purine ring. Part 1: new compounds with promising antibacterial activity against resistant Gram-positive pathogens” (2008).
Values after ≈ are worked out from the molar mass of the structure shown.

Tests used:
Format in all cases: functional
Staphylococcus aureus [1] = assay: Antibacterial activity against methicillin-susceptible Staphylococcus aureus Smith
Staphylococcus aureus [2] = assay: Antibacterial activity against methicillin-resistant Staphylococcus aureus KMP9
Streptococcus pneumoniae [3] = assay: Antibacterial activity against penicillin-susceptible Streptococcus pneumoniae 1
Enterococcus faecium = assay: Antibacterial activity against vancomycin-resistant Enterococcus faecium KU1778
Staphylococcus aureus [4] = assay: Antibacterial activity against methicillin-susceptible Staphylococcus aureus Smith infected iv dosed mouse 1 hr after inoculation
Streptococcus pneumoniae [5] = assay: Antibacterial activity against penicillin-susceptible Streptococcus pneumoniae ATCC 49619
Streptococcus pneumoniae [6] = assay: Antibacterial activity against penicillin-resistant Streptococcus pneumoniae KT2524
Streptococcus pyogenes = assay: Antibacterial activity against Streptococcus pyogenes ATCC 12344
Moraxella catarrhalis = assay: Antibacterial activity against Moraxella catarrhalis K1209
Haemophilus influenzae = assay: Antibacterial activity against Haemophilus influenzae TH13
Staphylococcus aureus [7] = assay: Antibacterial activity against methicillin-susceptible Staphylococcus aureus Smith infected twice iv dosed mouse 1 and 4 hrs after inoculation

Row | SMILES | MIC (Staphylococcus aureus [1]) [µg/mL] | MIC (Staphylococcus aureus [2]) [µg/mL] | MIC (Streptococcus pneumoniae [3]) [µg/mL] | MIC (Enterococcus faecium) [µg/mL] | ED50 (Staphylococcus aureus [4]) [mg/kg] | MIC (Streptococcus pneumoniae [5]) [µg/mL] | MIC (Streptococcus pneumoniae [6]) [µg/mL] | MIC (Streptococcus pyogenes) [µg/mL] | MIC (Moraxella catarrhalis) [µg/mL] | MIC (Haemophilus influenzae) [µg/mL] | ED50 (Staphylococcus aureus [7]) [mg/kg]
1 | C=C[C@]1(C)C[C@@H](OC(=O)CSC2CCN(C(=O)/C=C/n3cnc4cnc(N)nc43)CC2)[C@]2(C)[C@H](C)CC[C@]3(CCC(=O)[C@@H]32)[C@@H](C)[C@@H]1O | 0.1 (≈ 0.15 µM) | 0.2 (≈ 0.301 µM) | 0.39 (≈ 0.587 µM) | 0.2 (≈ 0.301 µM) | > 3.13 |  |  |  |  |  | 
2 | C=C[C@]1(C)C[C@@H](OC(=O)CSC2CCN(C(=O)CCn3cnc4c(N5CCCC5)nc(N)nc43)CC2)[C@]2(C)[C@H](C)CC[C@]3(CCC(=O)[C@@H]32)[C@@H](C)[C@@H]1O | 0.39 (≈ 0.53 µM) | 0.39 (≈ 0.53 µM) | 0.2 (≈ 0.272 µM) | 0.39 (≈ 0.53 µM) | > 3.13 |  |  |  |  |  | 
3 | CC[C@]1(C)C[C@@H](OC(=O)CSc2nnc(N)[nH]2)[C@]2(C)[C@H](C)CC[C@]3(CCC(=O)[C@@H]32)[C@@H](C)[C@@H]1O | 0.5 (≈ 1.04 µM) | 2 (≈ 4.18 µM) |  | 0.25 (≈ 0.522 µM) |  | 0.5 (≈ 1.04 µM) | 0.5 (≈ 1.04 µM) | 0.25 (≈ 0.522 µM) | 0.032 (≈ 0.0669 µM) | 0.5 (≈ 1.04 µM) | 6.88
4 | C=C[C@]1(C)C[C@@H](OC(=O)CSC2CCN(C(=O)CCn3cnc4c(N5CCNCC5)ncnc43)CC2)[C@]2(C)[C@H](C)CC[C@]3(CCC(=O)[C@@H]32)[C@@H](C)[C@@H]1O | 0.063 (≈ 0.0856 µM) | 0.063 (≈ 0.0856 µM) |  | 0.032 (≈ 0.0435 µM) | 2.94 | 0.032 (≈ 0.0435 µM) | 0.032 (≈ 0.0435 µM) | 0.016 (≈ 0.0217 µM) | 0.032 (≈ 0.0435 µM) | 1 (≈ 1.36 µM) | 
5 | C=C[C@]1(C)C[C@@H](OC(=O)CSC2CCN(C(=O)CCn3cnc4cnc(N)nc43)CC2)[C@]2(C)[C@H](C)CC[C@]3(CCC(=O)[C@@H]32)[C@@H](C)[C@@H]1O | 0.05 (≈ 0.075 µM) | 0.05 (≈ 0.075 µM) | 0.05 (≈ 0.075 µM) | 0.05 (≈ 0.075 µM) | < 3.13 | 0.125 (≈ 0.187 µM) | 0.063 (≈ 0.0945 µM) | 0.063 (≈ 0.0945 µM) | 0.25 (≈ 0.375 µM) | 2 (≈ 3 µM) | 
6 | C=C[C@]1(C)C[C@@H](OC(=O)CSC2CCN(C(=O)CCn3cnc4c(NC)nc(N)nc43)CC2)[C@]2(C)[C@H](C)CC[C@]3(CCC(=O)[C@@H]32)[C@@H](C)[C@@H]1O | 0.1 (≈ 0.144 µM) | 0.2 (≈ 0.287 µM) | 0.025 (≈ 0.0359 µM) | 0.1 (≈ 0.144 µM) | > 3.13 |  |  |  |  |  | 
7 | C=C[C@]1(C)C[C@@H](OC(=O)CSC2CCN(C(=O)CCn3cnc4cncnc43)CC2)[C@]2(C)[C@H](C)CC[C@]3(CCC(=O)[C@@H]32)[C@@H](C)[C@@H]1O | 0.05 (≈ 0.0767 µM) | 0.05 (≈ 0.0767 µM) | 0.1 (≈ 0.153 µM) | 0.05 (≈ 0.0767 µM) | > 3.13 |  |  |  |  |  | 
8 | C=C[C@]1(C)C[C@@H](OC(=O)CSC2CCN(C(=O)CCn3cnc4ncncc43)CC2)[C@]2(C)[C@H](C)CC[C@]3(CCC(=O)[C@@H]32)[C@@H](C)[C@@H]1O | 0.1 (≈ 0.153 µM) | 0.1 (≈ 0.153 µM) | 0.1 (≈ 0.153 µM) | 0.1 (≈ 0.153 µM) | > 3.13 |  |  |  |  |  | 
9 | C=C[C@]1(C)C[C@@H](OC(=O)CSC2CCN(C(=O)CCn3cnc4c(N)nc(N)nc43)CC2)[C@]2(C)[C@H](C)CC[C@]3(CCC(=O)[C@@H]32)[C@@H](C)[C@@H]1O | 0.05 (≈ 0.0733 µM) | 0.1 (≈ 0.147 µM) | 0.025 (≈ 0.0367 µM) | 0.05 (≈ 0.0733 µM) | > 3.13 |  |  |  |  |  | 
10 | C=C[C@]1(C)C[C@@H](OC(=O)CSC2CCN(C(=O)CCCn3cnc4cnc(N)nc43)CC2)[C@]2(C)[C@H](C)CC[C@]3(CCC(=O)[C@@H]32)[C@@H](C)[C@@H]1O | 0.1 (≈ 0.147 µM) | 0.2 (≈ 0.294 µM) | 0.78 (≈ 1.15 µM) | 0.1 (≈ 0.147 µM) | > 3.13 |  |  |  |  |  | 
11 | C=C[C@]1(C)C[C@@H](OC(=O)CSC2CCN(C(=O)CCn3cnc4c(N5CCNCC5)nc(N)nc43)CC2)[C@]2(C)[C@H](C)CC[C@]3(CCC(=O)[C@@H]32)[C@@H](C)[C@@H]1O | 0.25 (≈ 0.333 µM) | 0.5 (≈ 0.666 µM) | 0.063 (≈ 0.0839 µM) | 0.25 (≈ 0.333 µM) | < 3.13 | 0.063 (≈ 0.0839 µM) | 0.063 (≈ 0.0839 µM) | 0.032 (≈ 0.0426 µM) | 0.25 (≈ 0.333 µM) | 1 (≈ 1.33 µM) | 1.51
12 | C=C[C@]1(C)C[C@@H](OC(=O)CSC2CCN(C(=O)CCn3cnc4c(N)ncnc43)CC2)[C@]2(C)[C@H](C)CC[C@]3(CCC(=O)[C@@H]32)[C@@H](C)[C@@H]1O | 0.2 (≈ 0.3 µM) | 0.39 (≈ 0.585 µM) | 0.78 (≈ 1.17 µM) | 0.39 (≈ 0.585 µM) | > 3.13 |  |  |  |  |  | 
13 | C=C[C@]1(C)C[C@@H](OC(=O)CSC2CCN(C(=O)CCn3cnc4c(N(C)C)nc(N)nc43)CC2)[C@]2(C)[C@H](C)CC[C@]3(CCC(=O)[C@@H]32)[C@@H](C)[C@@H]1O | 0.1 (≈ 0.141 µM) | 0.1 (≈ 0.141 µM) | 0.05 (≈ 0.0704 µM) | 0.1 (≈ 0.141 µM) | > 3.13 |  |  |  |  |  | 
14 | C=C[C@]1(C)C[C@@H](OC(=O)CSC2CCN(C(=O)Cn3cnc4cncnc43)CC2)[C@]2(C)[C@H](C)CC[C@]3(CCC(=O)[C@@H]32)[C@@H](C)[C@@H]1O | 0.2 (≈ 0.314 µM) | 0.2 (≈ 0.314 µM) | 1.56 (≈ 2.45 µM) | 0.2 (≈ 0.314 µM) |  |  |  |  |  |  | 
15 | C=C[C@]1(C)C[C@@H](OC(=O)CSC2CCN(C(=O)CCn3cnc4c(N5CCOCC5)nc(N)nc43)CC2)[C@]2(C)[C@H](C)CC[C@]3(CCC(=O)[C@@H]32)[C@@H](C)[C@@H]1O | 0.2 (≈ 0.266 µM) | 0.2 (≈ 0.266 µM) | 0.1 (≈ 0.133 µM) | 0.2 (≈ 0.266 µM) |  |  |  |  |  |  | 
